# Test results published in patent US10092568B2, “CBP/Catenin antagonists for enhancing asymmetric division of somatic stem cells” (University of Southern California, priority 2010, dated 2018).
# Assays:
# [1] = tested on: Wnt/catenin transcription (TOPFLASH) in SW480 colon carcinoma cells; test: TOPFLASH TCF/catenin luciferase reporter in SW480 colon carcinoma cells; type: cell-based; details: Homo sapiens
# Description: ICG-001. Applicant's pharmacologic tools were identified using cell-based forward chemical genomic screens of small molecule secondary structure template chemical libraries (22).
# [2] = tested on: p300/beta-catenin interaction; test: Disruption of the p300/beta-catenin interaction; type: biochemical
# Description: Applicant next mapped the binding domains between CBP and beta-catenin, as well as between p300 and beta-catenin. The C-terminal trans-activating region of beta-catenin (647-781) interacted with the same 1-111 amino acids of both CBP and p300 (23). However, only the interaction between CBP and beta-catenin was disrupted by ICG-001, and not the p300/beta-catenin interaction.
# IQ-1. In addition to ICG-001, a screen of a large chemical library for maintenance of pluripotency in mES cells led to the identification of another compound, termed IQ-1 (FIG. 2b). […] I-Q-1 diminishes the interaction between p300 and beta-catenin thereby increasing the CBP/beta-catenin interaction (24).
# [3] = tested on: MDA-MB-231 cells; test: Stem cell markers in triple negative breast cancer cell line; type: cell-based
# Description: This phenotype CD44^hi, CD24^lo has been associated with a subpopulation of cells that behave like a breast cancer stem/tumor initiating cell population (51). […] Beyond reduction of survivin message level, there is a gene expression profile consistent with the occurrence of a mesenchymal to epithelial (MET) transition (i.e., decreased expression of twist, vimentin and S100A4 and an increase in E-cadherin expression). Recently, there have been a number of papers, which have correlated epithelial to mesenchymal transition (EMT) with a CSC phenotype (52). EMT is a normal physiologic process that is important in development and in adults, for example in wound healing, but pathophysiologically is associated with tumor metastasis and organ fibrosis (see later discussion on fibrosis). Specific CBP/catenin antagonists can reverse this aberrant EMT in vivo (EMT also plays a critical role in the skin in hair loss etc. J Dermatol Sci. 2011 Jan; 61(1):7-13. Epub 2010 Dec. 5; epithelial-mesenchymal transition (EMT) plays important roles not only in the morphogenesis but also in wound repair, tissue fibrosis and cancer progression. Recently, regulatory mechanism of this process has been elaborately elucidated. EMT can be a new therapeutic target for treating skin ulcer, fibrosing alopecia, and malignant cutaneous cancers, including squamous cell carcinoma and melanoma).
# [4] = tested on: ER alpha receptor; test: ER alpha re-expression in triple negative breast cancer; type: cell-based
# [5] = tested on: fibroblasts from IPF patients; test: S100A4/FSP-1 expression in fibroblasts from IPF patients in vitro; type: cell-based
# Description: (§1) Fibrosis. Idiopathic pulmonary fibrosis (IPF)/usual interstitial pneumonia (UIP), the most common of the idiopathic interstitial pneumonias, is a devastating, progressive disorder characterized by excessive fibroblast proliferation and extracellular matrix remodeling leading to lung destruction. There is currently no effective therapy for this uniformly fatal disease. An emerging paradigm proposes a central role for alveolar epithelial cell injury and dysregulated repair in the pathogenesis of IPF. Injury to the epithelium is thought to initiate a cascade of fibroblast activation and matrix deposition, which in predisposed hosts fails to resolve as it would in the course of normal wound repair. Epithelial cells undergo excessive apoptosis, whereas fibroblasts are less amenable to apoptosis and manifest increased survival. The well-characterized model of bleomycin-induced lung injury has been extensively used to investigate potential pathways involved in the pathogenesis of pulmonary fibrosis and to explore therapeutic approaches.
# [6] = tested on: rat type II lung epithelial cells; test: TGF-β1-induced EMT genes in lung epithelial cells; type: cell-based
# Description: as §1
# [7] = tested on: PC-12 cells with mutant PS-1 (L286V); test: Neuronal differentiation of PC-12 cells with FAD mutant PS-1 (L286V); type: cell-based
# Description: However, the effects of PS-1 mutations on the stability of beta-catenin, TCF/beta-catenin signaling, and thereby its potential role in AD remain controversial. Applicant has shown that introduction of a FAD mutant PS-1 (L286V) into PC-12 cells causes increased TCF/beta-catenin signaling, leading to the inhibition of neurite outgrowth. […] In the CNS, EpB2 expression is associated with axonal guidance (16). […] In initial in vivo studies, applicant treated penta-transgenic mice that over express mutant APP (695) (Swedish (K670N, M671L), Florida (I716V) and London (V717I)) and PS-1 (M146L and L286V) mutations with ICG-001 for 2 months (months 2-4). These mice normally develop massive cerebral deposition of Aβ starting at 6 weeks of age.
# [8] = tested on: mitotic cells in the ventricular zone (VZ); test: Par3 localization assay of symmetric versus asymmetric divisions in the ventricular zone of embryonic brain; type: in vivo, mouse
# Description: Taking advantage of the ready uptake and penetration through the placental barrier of applicant's small molecule Wnt modulators, applicant designed a series of experiments to investigate symmetric versus asymmetric divisions in the ventricular zone (VZ) of the brain during mouse embryonic development. Timed pregnant mice were topically treated for various time periods (1-3 days) with DMSO (vehicle control), the CBP/catenin antagonist ICG-001 or the p300/catenin antagonist IQ-1. Using a previously described protocol (56), the localization of […] (Par3) and DNA was examined in mitotic cells in the VZ. Par3 distributes symmetrically in cells that divide symmetrically and asymmetrically in cells that divide asymmetrically, whereas the DNA distributes symmetrically between the 2 cells. Using fluorescence microscopy, the percentage of mitotic cells dividing symmetrically or asymmetrically could be quantified. […] Antagonizing the CBP/catenin interaction with ICG-001 had no apparent effect yielding similarly, approximately 21% asymmetric divisions. […] Importantly, this decrease in asymmetric divisions upon treatment with IQ-1 could be rescued back essentially to control levels (i.e. ˜21%) by treatment with a 2-fold excess of ICG-001. Even further divergence in symmetric versus asymmetric divisions could be seen upon prolonged treatments. For example, treatment with IQ-1 (i.e., antagonizing p300/catenin interaction leading to increased usage of CBP) for 3 days (E13.5-16.5) decreased asymmetric divisions compared to control from 31% to 7%. […] This reporter mouse expresses EGFP, driven by the Tis21 promoter, in cells that have undergone neurogenic differentiative divisions.
# For example, Bultje et al. (Bultje R Neuron 63, 189-202, 2009) describe an assay to measure asymmetric distributions in the ventricular zone (vz) to evaluate asymmetric divisions during neurogenesis. Essentially this involves treating the animal (either adult or in utero) for a set period of time with compounds (either p.o., s.c., i.v. or topically) with compounds and then sacrificing the animal and examining the Par3 distribution (e.g., via immunohistochemistry) in mitotic cells vs. DNA distribution (e.g., using DAPI staining) Par3 distributes equally among the two daughter cells during symmetric division and unequally (essentially all in one daughter cell) during asymmetric differentiation.
# [9] = tested on: human anagen hair follicles; details: cited from earlier work
structure (smiles),measurement,setting,value
O=C1[C@H](Cc2ccc(O)cc2)N2C(=O)CCN(C(=O)NCc3ccccc3)[C@H]2CN1Cc1cccc2ccccc12 [ICG-001],IC50,[1],30 µM
same,p300/beta-catenin interaction,[2],without affecting
same,ALDH activity,[3],dramatically decreases
same,side population (SP),[3],dramatically decreases
same,recruitment of p300 to the CD24 promoter,[3]; ChIP,increased recruitment
same,CD44 expression,[3]; MDA-MB-231,decreasing
same,expression of cell surface CD24,"[3]; MDA-MB-231, 24h",significantly increased
same,expression of the ER alpha receptor,[4],re-expression
same,expression of S100A4/FSP-1,[5],significantly decreased
same,TGF-β1-induced up-regulation of α-SMA and type I collagen,[6],prevents
same,EpB2 expression,[7],again increased
same,neuronal differentiation and neurite outgrowth,[7],rescues the defects
same,expression of GAP43,[7]; NGF-induced differentiation,dramatically increased
same,"asymmetric divisions in the VZ after IQ-1, rescued",[8]; IQ-1 plus 2-fold excess of ICG-001,approximately 21%
same,defect in asymmetric divisions caused by IQ-1,[8]; excess ICG-001,corrects the defect
same,number of asymmetric divisions compared to vehicle control,[8]; topical or oral administration to pregnant mice,does not affect
same,asymmetric divisions in the VZ,"[8]; topical, 1 day, E13.5 to 14.5, DMSO approximately 21%",approximately 21%
same,hair fiber elongation,[9]; dose-dependent,significantly reduced
same,survivin expression,[9]; microdissected hair follicle,decreased
